Tests used:
Assay in all cases: NCI one-dose assay
[1] = system: HOP-92; format: cell-based, human; conditions: Homo sapiens, HOP-92, HOP-92, Non-small cell lung cancer, read-out: Cell growth inhibition %
Experimental: (§1) The National Cancer Institute (NCI), Bethesda, USA, selected the final compounds 6a–j and 7a–j for in vitro anticancer screening. An initial in vitro single-dose anticancer experiment was performed with the entire NCI 60 cell lines derived from nine tumor subpanel cancer cell lines. The results for each compound were illustrated as a mean graph showing the percentage growth of treated cells compared to untreated control cells (see Supplementary Materials).
(§2) The NCI anticancer screening process has been thoroughly detailed. The Drug Evaluation Branch of the National Cancer Institute in Bethesda, […], USA, established the procedure and conducted the anticancer assay on 60 human tumor cell lines from nine neoplastic cancers.

[2] = system: 786-0; format: cell-based, human; conditions: Homo sapiens, 786-0, 786-0, Renal cancer, read-out: Cell growth inhibition %
Experimental: as §1, §2

[3] = system: UO-31; format: cell-based, human; conditions: for inhibition at 10 µM: Homo sapiens, UO-31, UO-31, Renal cancer, read-out: Cell growth inhibition %
Experimental: as §1, §2

[4] = system: MDA-MB-231/ATCC; format: cell-based; conditions: Homo sapiens, Breast cancer, read-out: Cell growth inhibition %
Experimental: as §1, §2

[5] = system: T-47D; format: cell-based; conditions: Homo sapiens, T47D, Breast cancer, read-out: Cell growth inhibition %
Experimental: as §1, §2

[6] = system: M14; format: cell-based; conditions: Homo sapiens, M14, Melanoma, read-out: Cell growth inhibition %
Experimental: as §1, §2

[7] = system: U251; format: cell-based; conditions: Homo sapiens, U-251, U251, CNS cancer, read-out: Cell growth inhibition %
Experimental: as §1, §2

[8] = system: SW-620; format: cell-based; conditions: Homo sapiens, SW-620, Colon cancer, read-out: Cell growth inhibition %
Experimental: as §1, §2

[9] = system: SF-268; format: cell-based; conditions: Homo sapiens, SF-268, CNS cancer, read-out: Cell growth inhibition %
Experimental: as §1, §2

[10] = system: UACC-257; format: cell-based; conditions: Homo sapiens, UACC-257, Melanoma, read-out: Cell growth inhibition %
Experimental: as §1, §2

[11] = system: SNB-19; format: cell-based; conditions: Homo sapiens, SNB-19, CNS cancer, read-out: Cell growth inhibition %
Experimental: as §1, §2

[12] = system: MALME-3M; format: cell-based; conditions: Homo sapiens, Melanoma, read-out: Cell growth inhibition %
Experimental: as §1, §2

[13] = system: OVCAR-8; format: cell-based; conditions: Homo sapiens, OVCAR-8, Ovarian cancer, read-out: Cell growth inhibition %
Experimental: as §1, §2

[14] = system: HL-60(TB); format: cell-based; conditions: Homo sapiens, Leukemia, read-out: Cell growth inhibition %
Experimental: as §1, §2

[15] = system: HS 578 T; format: cell-based; conditions: Homo sapiens, Breast cancer, read-out: Cell growth inhibition %
Experimental: as §1, §2

[16] = system: HT29; format: cell-based; conditions: Homo sapiens, HT-29, HT29, Colon cancer, read-out: Cell growth inhibition %
Experimental: as §1, §2

[17] = system: K-562; format: cell-based; conditions: Homo sapiens, K562, K-562, Leukemia, read-out: Cell growth inhibition %
Experimental: as §1, §2

[18] = system: SR; format: cell-based; conditions: Homo sapiens, Leukemia, read-out: Cell growth inhibition %
Experimental: as §1, §2

[19] = system: NCI-H460; format: cell-based; conditions: Homo sapiens, NCI-H460, Non-small cell lung cancer, read-out: Cell growth inhibition %
Experimental: as §1, §2

[20] = system: SF-539; format: cell-based; conditions: Homo sapiens, SF-539, CNS cancer, read-out: Cell growth inhibition %
Experimental: as §1, §2

[21] = system: OVCAR-3; format: cell-based; conditions: Homo sapiens, OVCAR-3, Ovarian cancer, read-out: Cell growth inhibition %
Experimental: as §1, §2

[22] = system: EKVX; format: cell-based; conditions: Homo sapiens, Non-small cell lung cancer, read-out: Cell growth inhibition %
Experimental: as §1, §2

[23] = system: SK-MEL-5; format: cell-based; conditions: Homo sapiens, SK-MEL-5, Melanoma, read-out: Cell growth inhibition %
Experimental: as §1, §2

[24] = system: SN12C; format: cell-based; conditions: Homo sapiens, Renal cancer, read-out: Cell growth inhibition %
Experimental: as §1, §2

[25] = system: DU-145; format: cell-based; conditions: Homo sapiens, DU-145, Prostate cancer, read-out: Cell growth inhibition %
Experimental: as §1, §2

[26] = system: SK-MEL-28; format: cell-based; conditions: Homo sapiens, SK-MEL-28, Melanoma, read-out: Cell growth inhibition %
Experimental: as §1, §2

[27] = system: IGROV1; format: cell-based; conditions: Homo sapiens, IGROV-1, IGROV1, Ovarian cancer, read-out: Cell growth inhibition %
Experimental: as §1, §2

[28] = system: NCI/ADR-RES; format: cell-based; conditions: Homo sapiens, Ovarian cancer, read-out: Cell growth inhibition %
Experimental: as §1, §2

[29] = system: OVCAR-4; format: cell-based; conditions: Homo sapiens, OVCAR-4, Ovarian cancer, read-out: Cell growth inhibition %
Experimental: as §1, §2

[30] = system: SK-OV-3; format: cell-based; conditions: Homo sapiens, SK-OV-3, Ovarian cancer, read-out: Cell growth inhibition %
Experimental: as §1, §2

[31] = system: HCC-2998; format: cell-based; conditions: Homo sapiens, HCC-2998, Colon cancer, read-out: Cell growth inhibition %
Experimental: as §1, §2

[32] = system: OVCAR-5; format: cell-based; conditions: Homo sapiens, OVCAR-5, Ovarian cancer, read-out: Cell growth inhibition %
Experimental: as §1, §2

[33] = system: A549/ATCC; format: cell-based; conditions: Homo sapiens, Non-small cell lung cancer, read-out: Cell growth inhibition %
Experimental: as §1, §2

[34] = system: NCI-H23; format: cell-based; conditions: Homo sapiens, NCI-H23, Non-small cell lung cancer, read-out: Cell growth inhibition %
Experimental: as §1, §2

[35] = system: TK-10; format: cell-based; conditions: Homo sapiens, TK-10, Renal cancer, read-out: Cell growth inhibition %
Experimental: as §1, §2

[36] = system: NCI-H522; format: cell-based; conditions: Homo sapiens, NCI-H522, Non-small cell lung cancer, read-out: Cell growth inhibition %
Experimental: as §1, §2

Structure (SMILES)	inhibition at 10 µM [1]	inhibition at 10 µM [2]	inhibition at 10 µM [3]	inhibition at 10 µM [4]	inhibition at 10 µM [5]	inhibition at 10 µM [6]	inhibition at 10 µM [7]	inhibition at 10 µM [8]	inhibition at 10 µM [9]	inhibition at 10 µM [10]	inhibition at 10 µM [11]	inhibition at 10 µM [12]	inhibition at 10 µM [13]	inhibition at 10 µM [14]	inhibition at 10 µM [15]	inhibition at 10 µM [16]	inhibition at 10 µM [17]	inhibition at 10 µM [18]	inhibition at 10 µM [19]	inhibition at 10 µM [20]	further results
C=CCn1c(SC/C(=N\O)c2ccc(C)cc2)nnc1-c1c[nH]c2ccccc12 [Compound 7c, (Z)-2-((4-allyl-5-(1H-indol-3-yl)-4H-1,2,4-triazol-3-yl)thio)-1-(p-tolyl)ethanone Oxime]	7.98%	-2.2%	35%	4.01%	26.5%	5.59%	-2.94%	4.06%	3.63%	-6.62%	8.04%	9.17%	8.49%	10%	6.55%	-4.09%	13.3%	16.5%	9.2%	-1.42%	Cell growth inhibition % ([3]; UO-31, Renal cancer, 10 µM): 34.99%; inhibition at 10 µM [21]: -6.11%; inhibition at 10 µM [22]: 17.7%; inhibition at 10 µM [23]: 11.1%; inhibition at 10 µM [24]: 11.7%; inhibition at 10 µM [25]: -2.38%; inhibition at 10 µM [26]: -5.62%; inhibition at 10 µM [27]: 23.2%; inhibition at 10 µM [28]: 1.27%; inhibition at 10 µM [29]: 6.11%; inhibition at 10 µM [30]: -0.26%; inhibition at 10 µM [31]: 1.5%; inhibition at 10 µM [32]: 1.32%; inhibition at 10 µM [33]: 4.9%; inhibition at 10 µM [34]: 9.29%; inhibition at 10 µM [35]: -26.8%; inhibition at 10 µM [36]: 14.6%
O=C(CSc1nnc(-c2c[nH]c3ccccc23)n1-c1ccccc1)c1ccc(Cl)cc1 [Compound 6j, 2-((5-(1H-indol-3-yl)-4-phenyl-4H-1,2,4-triazol-3-yl)thio)-1-(4-chlorophenyl) Ethenone]	35%	55.1%	45.2%	48.3%	45.4%	19.4%	69.9%	29.7%	30.6%	27.7%	60%	36%	75.5%	11.1%	66.8%	57.4%	31%	7.63%	39.9%	50.5%	inhibition at 10 µM [21]: 26.1%; inhibition at 10 µM [22]: 74.4%; inhibition at 10 µM [23]: 21.8%; inhibition at 10 µM [24]: 35.4%; inhibition at 10 µM [25]: 11.6%; inhibition at 10 µM [26]: 31.7%; inhibition at 10 µM [27]: 48.6%; inhibition at 10 µM [28]: 94.2%; inhibition at 10 µM [29]: 85.1%; inhibition at 10 µM [30]: 27.9%; inhibition at 10 µM [31]: 21.9%; inhibition at 10 µM [32]: 9.28%; inhibition at 10 µM [33]: 62.5%; inhibition at 10 µM [34]: 59.2%; inhibition at 10 µM [35]: 16%; inhibition at 10 µM [36]: 33%

Source: PMC11859928, “Design, Synthesis, and Antiproliferative Activity of Novel Indole/1,2,4-Triazole Hybrids as Tubulin Polymerization Inhibitors” (Pharmaceuticals, 2025)
